The values that follow come from patent US20230096766A1, “AMINO ACID HAVING FUNCTIONAL GROUP CAPABLE OF INTERMOLECULAR HYDROGEN BONDING, PEPTIDE COMPOUND CONTAINING SAME AND METHOD FOR PRODUCTION THEREOF” (Chugai Seiyaku Kabushiki Kaisha, priority 2018, published 2023).

SMILES strings stand for the structures. *1 amine or outer side, *2 acyl side, *3 side chain or, on linkers, in order; H or OH if unused. Where a SMILES comes first, the peptide text is derived from it. Bridges are numbered along the chain shown (N, C = ends). [ ]: non-standard residue; d: D form. The star is where a group is joined. Tyr(3-F) = N[C@@H](Cc1ccc(O)c(F)c1)C(=O)O; NMeF = CN[C@@H](Cc1ccccc1)C(=O)O; NMeGABA = CN(CCCC(=O)[*:2])[*:1]; NMeD = CN[C@@H](CC(=O)O)C(=O)O; NMeL = CN[C@@H](CC(C)C)C(=O)O; NMeV = CN[C@H](C(=O)O)C(C)C; NMeA = CN[C@@H](C)C(=O)O; Piperidide = C1CCN(*)CC1; Sar = CNCC(=O)O; tBu = CC(C)(C)*

The series in a line: in vitro. The settings on record: human, Caco-2, Caco-2 (cm/sec).
As usually defined, the Papp is the rate of passage across a membrane or cell layer, normalised by area and donor concentration. Low values mean slow passage, high ones fast passage. Turning to `CC(C)C[C@@H]1NC(=O)[C@H](Cc2ccccc2)N(C)C(=O)[C@@H](C(C)C)NC(=O)C[C@@H](C(=O)N2CCCCC2)NC(=O)[C@H](C)N(C)C(=O)[C@H](CC(C)C)N(C)C(=O)[C@H](COC(C)(C)C)NC(=O)[C@H](CC(C)C)N(C)C(=O)CN(C)C(=O)[C@H](Cc2ccc(O)cc2)NC(=O)[C@H](CC(C)C)N(C)C1=O` [pd127] ([dV][NMeF]L[NMeL]Y[Sar][NMeL]S(tBu)[NMeL][NMeA]D-Piperidide; lactam N-11), the Papp is 0.13 ×10⁻⁶ cm/s.

As to `CC(C)C[C@@H]1NC(=O)[C@H](Cc2ccccc2)N(C)C(=O)[C@@H](C(C)C)NC(=O)C[C@@H](C(=O)N2CCCCC2)NC(=O)[C@H](CC(C)C)N(C)C(=O)[C@H](CC(C)C)N(C)C(=O)[C@H](Cc2ccc(O)c(F)c2)NC(=O)[C@H](CC(C)C)N(C)C(=O)CN(C)C(=O)[C@H]([C@@H](C)O)NC(=O)[C@H](CC(C)C)N(C)C1=O` [pd128] ([dV][NMeF]L[NMeL]T[Sar][NMeL][Tyr(3-F)][NMeL][NMeL]D-Piperidide; lactam N-11), the Papp was 0.17 ×10⁻⁶ cm/s.

The molecule `CC[C@H](C)[C@@H]1NC(=O)[C@H](CC(C)C)N(C)C(=O)CCCN(C)C(=O)C[C@@H](C(=O)N2CCCCC2)NC(=O)[C@H](CC(C)C)N(C)C(=O)[C@H](C)N(C)C(=O)[C@H](Cc2ccc(O)cc2)NC(=O)[C@H](CC(C)C)N(C)C(=O)[C@H](COC(C)(C)C)NC(=O)[C@H](CC(C)C)N(C)C(=O)[C@H](Cc2ccccc2)N(C)C1=O` [pd129] ([NMeGABA][NMeL]I[NMeF][NMeL]S(tBu)[NMeL]Y[NMeA][NMeL]D-Piperidide; lactam N-11) registered a Papp of 0.16 ×10⁻⁶ cm/s. Then `CC[C@H](C)[C@H]1C(=O)N[C@@H]([C@@H](C)O)C(=O)N(C)CC(=O)N(C)[C@@H](C)C(=O)N[C@H](C(=O)N2CCCCC2)CC(=O)N(C)[C@@H](C)C(=O)N[C@@H](C(C)C)C(=O)N(C)[C@@H](CC(C)C)C(=O)N(C)[C@@H](Cc2ccccc2)C(=O)NC(COc2cccc(Cl)c2)C(=O)N(C)[C@@H](Cc2ccccc2)C(=O)N1C` (some centres unmarked) [pd186], with 1.8 ×10⁻⁶ cm/s.

For the molecule `CC(C)C[C@@H]1NC(=O)[C@H](Cc2ccccc2)N(C)C(=O)[C@H](C)N(C)C(=O)C[C@@H](C(=O)N2CCCCC2)N(C)C(=O)[C@H](Cc2ccccc2)N(C)C(=O)[C@H](Cc2ccccc2)N(C)C(=O)[C@H](COC(C)(C)C)NC(=O)[C@H](C(C)C)N(C)C(=O)CN(C)C(=O)[C@H]([C@@H](C)O)NC(=O)[C@H](CC(C)C)N(C)C1=O` [pd202] ([NMeA][NMeF]L[NMeL]T[Sar][NMeV]S(tBu)[NMeF][NMeF][NMeD]-Piperidide; lactam N-11), the Papp is 2.1 ×10⁻⁶ cm/s.

In turn, `CC(C)C[C@@H]1NC(=O)[C@H](Cc2ccccc2)N(C)C(=O)[C@@H]2CCCN2C(=O)C[C@@H](C(=O)N2CCCCC2)NC(=O)[C@H](Cc2ccccc2)N(C)C(=O)[C@H](Cc2ccccc2)N(C)C(=O)[C@H](COC(C)(C)C)NC(=O)[C@H](CC(C)C)N(C)C(=O)CN(C)C(=O)[C@H]([C@@H](C)O)NC(=O)[C@H](CC(C)C)N(C)C1=O` [pd203] (P[NMeF]L[NMeL]T[Sar][NMeL]S(tBu)[NMeF][NMeF]D-Piperidide; lactam N-11) yielded a Papp of 2.1 ×10⁻⁶ cm/s. In the case of `CC(C)C[C@@H]1NC(=O)[C@H](C)N(C)C(=O)C[C@@H](C(=O)N2CCCCC2)NC(=O)[C@H](CC(C)C)N(C)C(=O)CN(C)C(=O)[C@H]([C@@H](C)O)NC(=O)[C@H](Cc2ccccc2)N(C)C(=O)[C@H](Cc2ccccc2)N(C)C(=O)[C@H](CC(C)C)NC(=O)[C@H](Cc2ccccc2)N(C)C(=O)[C@H](CC(C)C)N(C)C1=O` [pd204] ([NMeA]L[NMeL][NMeF]L[NMeF][NMeF]T[Sar][NMeL]D-Piperidide; lactam N-11) it was 2 ×10⁻⁶ cm/s; in that of `CC(C)C[C@@H]1NC(=O)[C@H](Cc2ccccc2)N(C)C(=O)[C@H]2CCCN2C(=O)C[C@@H](C(=O)N2CCCCC2)NC(=O)[C@H](Cc2ccccc2)N(C)C(=O)[C@H](Cc2ccccc2)N(C)C(=O)[C@H](COC(C)(C)C)NC(=O)[C@H](CC(C)C)N(C)C(=O)CN(C)C(=O)[C@H]([C@@H](C)O)NC(=O)[C@H](CC(C)C)N(C)C1=O` [pd206] ([dP][NMeF]L[NMeL]T[Sar][NMeL]S(tBu)[NMeF][NMeF]D-Piperidide; lactam N-11), 1.8 ×10⁻⁶ cm/s.
